# Laboratory results published in patent US20220267352A1, “RAPAMYCIN ANALOGS AND USES THEREOF” (Anakuria Therapeutics, Inc., priority 2021, published 2022).
# Tested on: p-p70 S6 Kinase (Thr389) in MCF-7 cells
# Test: AlphaLISA Ultra pS6K1 assay
# Assay type: cell-based
# Details: Homo sapiens, 1.5 h; MCF7 cells, 90 min
# Experimental: Example 55: AlphaLISA Ultra pS6K1 Assay
# (§1) Assay Protocol: • 1. Seed MCF-7 cells in Corning 3701 plate and incubate for 20˜24 hour. 12,000˜16,000 cells will be seeded in 36 μL medium per well. • 2. Change the culture medium with fresh medium and incubate for another 2 hours. • 3. Add 12 μL (4×) compounds into the cell plate by HAMILTON. Final DMSO concentration is 0.5%. Incubate for 90 minutes. • 4. Aspirate 38 μL by HAMILTON, 10 μL rest per well. • 5. Add 10 μL 2× lysis buffer using HAMILTON; total volume in wells is 20 μL. Allow cells to shake for 30 min. Cover plate by plastic foil and store plate at −80° C. up to analysis. • 6. Thaw cell lysate at RT and transfer 10 μL lysate to assay plate (Optiplate-384). • 7. Add 5 μL acceptor beads into assay plate and incubation for 2 hours • 8. Add 5 μL donor beads and incubation for 2 hours • 9. Count the plate by EnSpire Multimode Plate Reader
row,Compound,IC50 [nM]
1,"CO[C@@H]1/C(C)=C/[C@@H](C)C(=O)C[C@@H]([C@H](C)C[C@@H]2CC[C@@H](OP(C)(C)=O)[C@H](OC)C2)OC(=O)[C@@H]2CCCCN2C(=O)C(=O)[C@]2(O)O[C@@H](CC[C@H]2C)CC(OCCOCCOC2COC2)/C(C)=C/C=C/C=C/[C@@H](C)C[C@@H](C)C(=O)[C@@H]1OC (stereo partly drawn) [I-73, (1R,9S,12S,15R,16E,18R,19R,21R,23S,24E,26E,28E,32S,35R)-12-[(1R)-2-[(1S,3R,4R)-4-dimethylphosphoryloxy-3-methoxy-cyclohexyl]-1-methyl-ethyl]-1-hydroxy-18,19-dimethoxy-15,17,21,23,29,35-hexamethyl-30-[2-[2-(oxetan-3-yloxy)ethoxy]ethoxy]-11,36-dioxa-4-azatricyclo[30.3.1.04,9]hexatriaconta-16,24,26,28-tetraene-2,3,10,14,20-pentone]",10 to 100
2,"CO[C@@H]1C[C@H](C[C@@H](C)[C@@H]2CC(=O)[C@H](C)/C=C(\C)[C@@H](O)[C@@H](OC)C(=O)[C@H](C)C[C@H](C)/C=C/C=C/C=C(\C)[C@@H](OCCOC3COC3)C[C@@H]3CC[C@@H](C)[C@@](O)(O3)C(=O)C(=O)N3CCCC[C@H]3C(=O)O2)CC[C@H]1O [I-72, (1R,9S,12S,15R,16E,18R,19R,21R,23S,24E,26E,28E,30S,32S,35R)-1,18-dihydroxy-12-[(1R)-2-[(1S,3R,4R)-4-hydroxy-3-methoxy-cyclohexyl]-1-methyl-ethyl]-19-methoxy-15,17,21,23,29,35-hexamethyl-30-[2-(oxetan-3-yloxy)ethoxy]-11,36-dioxa-4-azatricyclo[30.3.1.0^4,9]hexatriaconta-16,24,26,28-tetraene-2,3,10,14,20-pentone]",< 1
3,"COCCO[C@@H]1CC[C@@H](C[C@@H](C)[C@@H]2CC(=O)[C@H](C)/C=C(\C)[C@@H](O)[C@@H](OC)C(=O)[C@H](C)C[C@H](C)/C=C/C=C/C=C(\C)[C@H](OC[C@H]3COCCO3)C[C@@H]3CC[C@@H](C)[C@@](O)(O3)C(=O)C(=O)N3CCCC[C@H]3C(=O)O2)C[C@H]1OC [I-63, (1R,9S,12S,15R,16E,18R,19R,21R,23S,24E,26E,28E,30R,32S,35R)-30-[[(2R)-1,4-dioxan-2-yl]methoxy]-1,18-dihydroxy-19-methoxy-12-[(1R)-2-[(1S,3R,4R)-3-methoxy-4-(2-methoxyethoxy)cyclohexyl]-1-methyl-ethyl]-15,17,21,23,29,35-hexamethyl-11,36-dioxa-4-azatricyclo[30.3.1.0^4,9]hexatriaconta-16,24,26,28-tetraene-2,3,10,14,20-pentone]",1 to 10
4,"COCCO[C@@H]1CC[C@@H](C[C@@H](C)[C@@H]2CC(=O)[C@H](C)/C=C(\C)[C@@H](O)[C@@H](OC)C(=O)[C@H](C)C[C@H](C)/C=C/C=C/C=C(\C)[C@H](OC[C@@H]3COCCO3)C[C@@H]3CC[C@@H](C)[C@@](O)(O3)C(=O)C(=O)N3CCCC[C@H]3C(=O)O2)C[C@H]1OC [I-65, (1R,9S,12S,15R,16E,18R,19R,21R,23S,24E,26E,28E,30R,32S,35R)-30-[[(2S)-1,4-dioxan-2-yl]methoxy]-1,18-dihydroxy-19-methoxy-12-[(1R)-2-[(1S,3R,4R)-3-methoxy-4-(2-methoxyethoxy)cyclohexyl]-1-methyl-ethyl]-15,17,21,23,29,35-hexamethyl-11,36-dioxa-4-azatricyclo[30.3.1.0^4,9]hexatriaconta-16,24,26,28-tetraene-2,3,10,14,20-pentone]",1 to 10
5,"COCCO[C@@H]1CC[C@@H](C[C@@H](C)[C@@H]2CC(=O)[C@H](C)/C=C(\C)[C@@H](O)[C@@H](OC)C(=O)[C@H](C)C[C@H](C)/C=C/C=C/C=C(\C)C(OCc3cnccn3)C[C@@H]3CC[C@@H](C)[C@@](O)(O3)C(=O)C(=O)N3CCCC[C@H]3C(=O)O2)C[C@H]1OC (stereo partly drawn) [I-68, (1R,9S,12S,15R,16E,18R,19R,21R,23S,24E,26E,28E,32S,35R)-1,18-dihydroxy-19-methoxy-12-[(1R)-2-[(1S,3R,4R)-3-methoxy-4-(2-methoxyethoxy)cyclohexyl]-1-methyl-ethyl]-15,17,21,23,29,35-hexamethyl-30-(pyrazin-2-ylmethoxy)-11,36-dioxa-4-azatricyclo[30.3.1.0^4,9]hexatriaconta-16,24,26,28-tetraene-2,3,10,14,20-pentone]",< 1
6,"CO[C@@H]1C[C@H](C[C@@H](C)[C@@H]2CC(=O)[C@H](C)/C=C(\C)[C@@H](O)[C@@H](OC)C(=O)[C@H](C)C[C@H](C)/C=C/C=C/C=C(\C)[C@H](OCCOC3COC3)C[C@@H]3CC[C@@H](C)[C@@](O)(O3)C(=O)C(=O)N3CCCC[C@H]3C(=O)O2)CC[C@H]1O [I-71, (1R,9S,12S,15R,16E,18R,19R,21R,23S,24E,26E,28E,30R,32S,35R)-1,18-dihydroxy-12-[(1R)-2-[(1S,3R,4R)-4-hydroxy-3-methoxy-cyclohexyl]-1-methyl-ethyl]-19-methoxy-15,17,21,23,29,35-hexamethyl-30-[2-(oxetan-3-yloxy)ethoxy]-11,36-dioxa-4-azatricyclo[30.3.1.0^4,9]hexatriaconta-16,24,26,28-tetraene-2,3,10,14,20-pentone]",1 to 10
7,"CO[C@@H]1C[C@H](C[C@@H](C)[C@@H]2CC(=O)[C@H](C)/C=C(\C)[C@@H](O)[C@@H](OC)C(=O)[C@H](C)C[C@H](C)/C=C/C=C/C=C(\C)C(OCc3cnccn3)C[C@@H]3CC[C@@H](C)[C@@](O)(O3)C(=O)C(=O)N3CCCC[C@H]3C(=O)O2)CC[C@H]1OCCO (stereo partly drawn) [I-67, (1R,9S,12S,15R,16E,18R,19R,21R,23S,24E,26E,28E,32S,35R)-1,18-dihydroxy-12-[(1R)-2-[(1S,3R,4R)-4-(2-hydroxyethoxy)-3-methoxy-cyclohexyl]-1-methyl-ethyl]-19-methoxy-15,17,21,23,29,35-hexamethyl-30-(pyrazin-2-ylmethoxy)-11,36-dioxa-4-azatricyclo[30.3.1.0^4,9]hexatriaconta-16,24,26,28-tetraene-2,3,10,14,20-pentone]",< 1

# Tested on: p-Akt 1/2/3 (Ser473) in MCF-7 cells
# Test: AlphaLISA Ultra pAKT assay
# Assay type: cell-based
# Details: Homo sapiens, 1.5 h; MCF7 cells, 90 min
# Experimental: Example 56: AlphaLISA Ultra pAKT Assay
# as §1, with “1.” for “1. Seed”, “16,000˜20,000” for “12,000˜16,000”, “90 minutes.” for “2 hours.”, “Incubate for 90 minutes. • 4.” left out
row,Compound,IC50 [nM]
1,"CO[C@@H]1/C(C)=C/[C@@H](C)C(=O)C[C@@H]([C@H](C)C[C@@H]2CC[C@@H](OCCO)[C@H](OC)C2)OC(=O)[C@@H]2CCCCN2C(=O)C(=O)[C@]2(O)O[C@@H](CC[C@H]2C)CC(OCCOC2COC2)/C(C)=C/C=C/C=C/[C@@H](C)C[C@@H](C)C(=O)[C@@H]1OC (stereo partly drawn) [I-87, (3S,6R,7E,9R,10R,12R,14S,15E,17E,19E,23S,26R,27R,34aS)-27-hydroxy-3-((R)-1-((1S,3R,4R)-4-(2-hydroxyethoxy)-3-methoxycyclohexyl)propan-2-yl)-9,10-dimethoxy-6,8,12,14,20,26-hexamethyl-21-(2-(oxetan-3-yloxy)ethoxy)-9,10,12,13,14,21,22,23,24,25,26,27,32,33,34,34a-hexadecahydro-3H-23,27-epoxypyrido[2,1-c][1]oxa[4]azacyclohentriacontine-1,5,11,28,29(4H,6H,31H)-pentaone]",≥ 1000
2,"CO[C@@H]1/C(C)=C/[C@@H](C)C(=O)C[C@@H]([C@H](C)C[C@@H]2CC[C@@H](OP(C)(C)=O)[C@H](OC)C2)OC(=O)[C@@H]2CCCCN2C(=O)C(=O)[C@]2(O)O[C@@H](CC[C@H]2C)CC(OCC2COCCO2)/C(C)=C/C=C/C=C/[C@@H](C)C[C@@H](C)C(=O)[C@@H]1OC (stereo partly drawn) [I-24, (1R,2R,4S)-4-((2R)-2-((3S,6R,7E,9R,10R,12R,14S,15E,17E,19E,23S,26R,27R,34aS)-21-((1,4-dioxan-2-yl)methoxy)-27-hydroxy-9,10-dimethoxy-6,8,12,14,20,26-hexamethyl-1,5,11,28,29-pentaoxo-1,4,5,6,9,10,11,12,13,14,21,22,23,24,25,26,27,28,29,31,32,33,34,34a-tetracosahydro-3H-23,27-epoxypyrido[2,1-c][1]oxa[4]azacyclohentriacontin-3-yl)propyl)-2-methoxycyclohexyl dimethylphosphinate]",≥ 1000
